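Five compound concentrations were applied to cells in 96-well plates for 48 hours; endpoints were derived by simple linear interpolation of the resulting dose-response curve. GI50 is the concentration that inhibits growth by half. Definition used: TGI = concentration required for complete inhibition of growth.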
Key:
Assay in all cases: growth of human tumour cells (NCI), 48 h
SW-620 colon = tested on: SW-620 colon
SK-MEL-28 melanoma = tested on: SK-MEL-28 melanoma
SF-268 CNS = tested on: SF-268 CNS
CAKI-1 renal = tested on: CAKI-1 renal
BT-549 breast = tested on: BT-549 breast
SK-OV-3 ovarian = tested on: SK-OV-3 ovarian
OVCAR-4 ovarian = tested on: OVCAR-4 ovarian
SK-MEL-5 melanoma = tested on: SK-MEL-5 melanoma
HOP-62 NSCLC = tested on: HOP-62 NSCLC
UO-31 renal = tested on: UO-31 renal
PC-3 prostate = tested on: PC-3 prostate
M14 melanoma = tested on: M14 melanoma
MDA-MB-435 = tested on: MDA-MB-435
LOX IMVI melanoma = tested on: LOX IMVI melanoma
NCI-H226 lung = tested on: NCI-H226 lung
K-562 leukemia = tested on: K-562 leukemia
TK-10 renal = tested on: TK-10 renal
A498 renal = tested on: A498 renal
SNB-19 CNS = tested on: SNB-19 CNS
SN12C renal = tested on: SN12C renal
ACHN renal = tested on: ACHN renal
KM12 colon = tested on: KM12 colon
UACC-62 melanoma = tested on: UACC-62 melanoma
NCI-H460 lung = tested on: NCI-H460 lung
OVCAR-8 ovarian = tested on: OVCAR-8 ovarian
SF-539 CNS = tested on: SF-539 CNS
SR leukemia = tested on: SR leukemia
MALME-3M melanoma = tested on: MALME-3M melanoma
NCI-H522 lung = tested on: NCI-H522 lung
NCI-H23 lung = tested on: NCI-H23 lung
NCI/ADR-RES ovarian = tested on: NCI/ADR-RES ovarian
HL-60(TB) leukemia = tested on: HL-60(TB) leukemia
T-47D breast = tested on: T-47D breast
HOP-92 NSCLC = tested on: HOP-92 NSCLC
OVCAR-3 ovarian = tested on: OVCAR-3 ovarian
SNB-75 CNS = tested on: SNB-75 CNS
OVCAR-5 ovarian = tested on: OVCAR-5 ovarian
HCT-15 colon = tested on: HCT-15 colon
IGROV1 ovarian = tested on: IGROV1 ovarian
CCRF-CEM leukemia = tested on: CCRF-CEM leukemia
UACC-257 melanoma = tested on: UACC-257 melanoma
MCF7 breast = tested on: MCF7 breast
SK-MEL-2 melanoma = tested on: SK-MEL-2 melanoma
HS 578T breast = tested on: HS 578T breast
MDA-MB-231 breast = tested on: MDA-MB-231 breast
RPMI-8226 leukemia = tested on: RPMI-8226 leukemia
COLO 205 colon = tested on: COLO 205 colon
DU-145 prostate = tested on: DU-145 prostate
HCT-116 colon = tested on: HCT-116 colon
MOLT-4 leukemia = tested on: MOLT-4 leukemia
U251 CNS = tested on: U251 CNS
A549 NSCLC = tested on: A549 NSCLC
RXF 393 renal = tested on: RXF 393 renal
786-0 renal = tested on: 786-0 renal
HT29 colon = tested on: HT29 colon
HCC-2998 colon = tested on: HCC-2998 colon

## COc1ccc(-c2nc(-c3nc4cc(Cl)c(F)cc4[nH]3)c3ccccn23)cc1
SW-620 colon
  GI50: 5.38 µM
  TGI: > 100 µM
SK-MEL-28 melanoma
  GI50: > 100 µM
  TGI: > 100 µM
SF-268 CNS
  GI50: 9.11 µM
  TGI: > 100 µM
CAKI-1 renal
  GI50: 5.35 µM
  TGI: > 100 µM
BT-549 breast
  GI50: 4.91 µM
  TGI: > 100 µM
SK-OV-3 ovarian
  GI50: > 100 µM
  TGI: > 100 µM
OVCAR-4 ovarian
  GI50: 7.93 µM
  TGI: > 100 µM
SK-MEL-5 melanoma
  GI50: 2.22 µM
  TGI: 6.79 µM
HOP-62 NSCLC
  GI50: 19.8 µM
  TGI: > 100 µM
UO-31 renal
  GI50: 2.62 µM
  TGI: 35.7 µM
PC-3 prostate
  GI50: 4.58 µM
  TGI: > 100 µM
M14 melanoma
  GI50: 5.15 µM
  TGI: > 100 µM
MDA-MB-435
  GI50: 3.8 µM
  TGI: > 100 µM
LOX IMVI melanoma
  GI50: 5.36 µM
  TGI: > 100 µM
NCI-H226 lung
  GI50: 14.5 µM
  TGI: > 100 µM
K-562 leukemia
  GI50: 4.84 µM
  TGI: > 100 µM
TK-10 renal
  GI50: 5.25 µM
  TGI: > 100 µM
A498 renal
  GI50: 2.31 µM
  TGI: > 100 µM
SNB-19 CNS
  GI50: 8.34 µM
  TGI: > 100 µM
SN12C renal
  GI50: 11.2 µM
  TGI: > 100 µM
ACHN renal
  GI50: 7.34 µM
  TGI: > 100 µM
KM12 colon
  GI50: 4.56 µM
  TGI: > 100 µM
UACC-62 melanoma
  GI50: 6.05 µM
  TGI: > 100 µM
NCI-H460 lung
  GI50: 5.43 µM
  TGI: > 100 µM
OVCAR-8 ovarian
  GI50: 3.45 µM
  TGI: > 100 µM
SF-539 CNS
  GI50: 39.8 µM
  TGI: > 100 µM
SR leukemia
  GI50: 3.87 µM
  TGI: > 100 µM
MALME-3M melanoma
  GI50: 20 µM
  TGI: > 100 µM
NCI-H522 lung
  GI50: 4.39 µM
  TGI: > 100 µM
NCI-H23 lung
  GI50: 29.1 µM
  TGI: > 100 µM
NCI/ADR-RES ovarian
  GI50: 5.5 µM
  TGI: > 100 µM
HL-60(TB) leukemia
  GI50: 4.97 µM
  TGI: > 100 µM
T-47D breast
  GI50: 3.54 µM
  TGI: 33.1 µM
HOP-92 NSCLC
  GI50: 3.24 µM
  TGI: > 100 µM
OVCAR-3 ovarian
  GI50: 8.75 µM
  TGI: > 100 µM
SNB-75 CNS
  GI50: 5.31 µM
  TGI: > 100 µM
OVCAR-5 ovarian
  GI50: > 100 µM
  TGI: > 100 µM
HCT-15 colon
  GI50: 5.72 µM
  TGI: > 100 µM
IGROV1 ovarian
  GI50: 4.91 µM
  TGI: > 100 µM
CCRF-CEM leukemia
  GI50: 3.91 µM
  TGI: > 100 µM
UACC-257 melanoma
  GI50: 3.15 µM
  TGI: 13.2 µM
MCF7 breast
  GI50: 4.57 µM
  TGI: > 100 µM
SK-MEL-2 melanoma
  GI50: 6.86 µM
  TGI: 80 µM
HS 578T breast
  GI50: 12.2 µM
  TGI: > 100 µM
MDA-MB-231 breast
  GI50: 5.82 µM
  TGI: > 100 µM
RPMI-8226 leukemia
  GI50: 3.02 µM
  TGI: > 100 µM
COLO 205 colon
  GI50: 7.1 µM
  TGI: > 100 µM
DU-145 prostate
  GI50: 6.58 µM
  TGI: > 100 µM
HCT-116 colon
  GI50: 6.09 µM
  TGI: > 100 µM
MOLT-4 leukemia
  GI50: 4.21 µM
  TGI: > 100 µM
U251 CNS
  GI50: 6.67 µM
  TGI: > 100 µM
A549 NSCLC
  GI50: 4.04 µM
  TGI: > 100 µM
RXF 393 renal
  GI50: 4.65 µM
  TGI: > 100 µM
786-0 renal
  GI50: 8.94 µM
  TGI: > 100 µM
HT29 colon
  GI50: 4.26 µM
  TGI: > 100 µM
HCC-2998 colon
  GI50: 4.03 µM
  TGI: > 100 µM
